From PMC9367672, “In vitro differences in toddalolactone metabolism in various species and its effect on cytochrome P450 expression” (Pharmaceutical Biology, 2022)

What was measured:
CYP1A1 = target: T1, CYP1A1 (Homo sapiens, UniProt P04798); assay: Reaction phenotyping with recombinant human CYP1A1; type: in vitro ADME; parameters: purchased Corning Life Sciences (Corning, MA); details: CYP1A1 15 nM, 37 °C, 60 min; P4 main metabolite
T1 sequence (P04798 1-512): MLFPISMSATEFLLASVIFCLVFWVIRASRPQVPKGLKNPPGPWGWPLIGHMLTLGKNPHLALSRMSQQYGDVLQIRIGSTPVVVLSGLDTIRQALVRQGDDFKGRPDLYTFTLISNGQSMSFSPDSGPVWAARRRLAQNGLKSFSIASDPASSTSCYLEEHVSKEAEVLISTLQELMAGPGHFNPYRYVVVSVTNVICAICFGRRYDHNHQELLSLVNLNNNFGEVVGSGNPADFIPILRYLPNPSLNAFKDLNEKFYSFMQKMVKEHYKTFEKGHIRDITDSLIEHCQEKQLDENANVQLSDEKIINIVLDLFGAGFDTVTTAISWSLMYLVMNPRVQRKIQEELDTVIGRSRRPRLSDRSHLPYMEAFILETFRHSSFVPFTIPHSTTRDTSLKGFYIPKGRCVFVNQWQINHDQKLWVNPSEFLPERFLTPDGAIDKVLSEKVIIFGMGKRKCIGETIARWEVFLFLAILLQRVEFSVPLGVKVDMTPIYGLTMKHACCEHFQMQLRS
Protocol: (§1) The CYP reaction system (200 μL) consisted of 0.1 M potassium phosphate buffer (pH 7.4), an NADPH-generating system (1 mM NADPH, 10 mM G-6-P, 1 unit/mL G-6-PD, 4 mM MgCl2), and liver microsomes or recombinant human microsomes (supersomes). Each of the in vitro enzymatic assays using liver microsomes was linear with respect to incubation time and amount of protein. After a pre-incubation at 37 °C for 3 min, the reactions were initiated by adding NADP^+. After incubating for 60 min, the reactions were quenched by adding 200 μL of ice-cold acetonitrile. Samples were centrifuged at 18,000 g for 15 min at 4 °C and 10 μL of supernatant was analyzed using an HPLC system. NADPH or CYP enzyme sources were not used in the control group to ensure that the metabolic reactions were CYP- and NADPH-dependent. All incubation assays were completed in triplicate. The data are presented as mean ± standard deviation (SD).
Thirteen cDNA-expressed human CYP isoforms (CYP1A1, CYP1A2, CYP2A6, CYP2B6, CYP2C8, CYP3A4, CYP2C19, CYP3A5, CYP1B1, CYP2C9, CYP2D6, CYP2E1 and CYP4F2) were used to identify the isoform(s) involved in the biotransformation of toddalolactone. Toddalolactone (10 μM) was incubated with each recombinant CYP (15 nM) for 60 min at 37 °C and metabolites were identified by HPLC.

HLMs = assay: Prediction of in vivo hepatic clearance in humans from HLM kinetics; type: in vitro ADME, human
Protocol: The in vivo hepatic clearances in oxidative metabolism and glucuronidation of toddalolactone were calculated using Equations (4)–(6) (Li et al. [2008]): (4) CLint in vitro=∑i=1nVmax(Mi)/Km(Mi) (5) CLint in vivo=CLint in vitro⋅SF (6) CLH=QH⋅fu⋅CLint in vivo/QH+fu⋅CLint in vivo where SF is the milligrams of microsomal protein per gram of liver multiplied by the grams of liver weight; CLH is hepatic clearance; fu is the unbound fraction in the blood (the value of fu was set to 1 due to the absence of available data for toddalolactone); QH is the blood flow in the liver; and Mi is the metabolite of toddalolacone. The physiological parameters to calculate intrinsic clearance were as follows. The liver weight of dogs, rats and humans were 32, 40 and 25.7 g/kg body weight, respectively; the content of microsomal protein was 77.9, 44.8 and 48.8 mg/g of liver; and the blood flow in the liver was 30.9, 55.2 and 20.7 mL/(min ⋅ kg), respectively (Naritomi et al. [2001]).

PLMs = assay: Enzyme kinetics of toddalolactone metabolism in mini pig liver microsomes (oxidative metabolism and glucuronidation); type: in vitro ADME; details: for V max: toddalolactone 1–200 μM
Protocol: as §1
(§2) In the UGT reaction system, liver microsomes were incubated in 200 μL of the reaction system containing 4 mM UDPGA, 5 mM MgCl2, 20 µg/mL alamethicin, and 50 mM Tris-HCl buffer (pH 7.4). After pre-incubation at 37 °C for 3 min, UDPGA was added to the mixture to initiate the reactions. The mixtures were incubated at 37 °C for 60 min, followed by the addition of 200 μL of cold methanol to terminate the reactions. After centrifugation at 18,000 g for 15 min, 10 μL of the supernatant was analyzed by HPLC.
(§3) The enzyme kinetics of toddalolactone in oxidative metabolism and glucuronidation were determined by incubating liver microsomes (0.2 mg/mL) or CYPs (15 nM) with different concentrations of toddalolactone (1–200 μM). The kinetic parameters including Km and Vmax were obtained by fitting the experimental data to the Michaelis–Menten equation (Equation (1)), biphasic kinetics equation (Equation (2)), or substrate inhibition equation (Equation (3)) (He et al. [2018]), and the results were graphically represented on Eadie–Hofstee plots. The in vitro intrinsic clearance (CLint) was calculated based on the Vmax/Km ratio. Metabolites were quantified using the standard curve for toddalolactone because of the absence of metabolite standards. All incubations were repeated in three independent experiments. Kinetic constants were expressed with mean ± SD: (1) V=Vmax×[S]/Km+[S] (2) V=Vmax1×[S]/Ks1+[S]+Vmax2×[S]/Ks2+[S] (3) V=Vmax×[S]/Ks+[S]+[S]^2/Ksi where v is the rate of reaction, Vmax is the estimated maximum velocity, [S] is the substrate concentration, and Km is the affinity constant of the substrate; Vmax1 and Vmax2 represent the estimated maximum velocity of the two metabolic phases; Ks1 and Ks2 represent the affinity constants for two metabolic phases; Ks and Ksi are the substrate affinity and inhibition constants, respectively.
(§4) The enzyme kinetics in oxidative metabolism and glucuronidation of toddalolactone were studied, and preliminary experiments were performed to ensure that metabolites were formed in the linear range of both reaction time and microsomal protein concentration. The metabolite with the largest peak area was used to calculate the kinetic parameter values (Km, Vmax and CLint). Based on the results of toddalolactone metabolism in different species, the kinetic parameter values in RLMs, DLMs, MLMs, HLMs, RAMs, MIMs, PLMs, CYP1A1 and CYP3A5 were calculated using P4, P4, P4, P4, P2, P2, P4, P4 and P4 data in oxidative metabolism, respectively. In the glucuronidation reaction, the kinetic parameter values in RLMs, MLMs, HLMs, RAMs and PLMs were calculated using P5, P6, P6, P6 and P5 data, respectively.

[1] = as above; type: in vitro ADME; details: pig, Vmax/Km
Protocol: as §1, §2, §3, §4

[2] = P450-catalyzed oxidation, P4 formation
[3] = glucuronide metabolism, P5 formation

COc1cc2oc(=O)ccc2c(OC)c1C[C@@H](O)C(C)(C)O [toddalolactone]
catalysis of toddalolactone metabolism by rhCYP isoform (CYP1A1): predominantly catalyzed | CLH versus hepatic blood flow (QH) (HLMs; HLMs): 8.68% | clearance class according to predicted CLH (HLMs; humans): low-clearance (low-clearance drugs (<30% liver blood flow)) | in vivo hepatic clearance (CLH) (HLMs; humans, predicted from kinetic parameters of P1–P6, fu set to 1): 5.25 mL/(min/kg body weight) | K m (PLMs; [2]): 135.36 ± 32.39 µM | V max (PLMs; [2]): 94.24 ± 11.61 pmol/min/mg protein | K m (PLMs; [3]): 93.28 ± 22.35 µM | V max (PLMs; [3]): 34.12 ± 3.62 pmol/min/mg protein | microsomal CLint ([1]; liver microsomes, pH 7.4, PLMs, P450-catalyzed oxidation, P4 formation): 0.69 µL/min/mg | microsomal CLint ([1]; mini pig liver microsomes (PLMs), UGT reaction system, pH 7.4, glucuronide metabolism, P5 formation): 0.36 µL/min/mg
